Test results: patent US20250136595A1, “ACYLATED HETEROCYCLIC QUINAZOLINE DERIVATIVES AS INHIBITORS OF ERBB2” (Enliven Inc., priority 2022, published 2025)

Key:
[1] = target: Ba/F3 ERBB2 YVMA (Homo sapiens, UniProt P04626, DUP772-775, cells depend on it); test: Cell viability assay (CellTiter Glo) in Ba/F3 cells engineered to express ERBB2 YVMA; type: cell-based, mouse; conditions: Ba/F3 cells expressing human ERBB2 YVMA mutant, 72 hours, % viability, read-out: Ba/F3 ERBB2 YVMA IC50
Description: Cells were treated with compounds, and cell viability was measured as a metric of kinase inhibition.
The Ba/F3 cell line is IL-3-dependent mouse cell line derived from the C3H mouse strain. Ba/F3 cell lines were engineered to express human ERBB2 or EGFR kinases, rendering the cells IL-3 independent. The lines were generated via retroviral transduction utilizing a Moloney murine leukemia virus (MMLV) promoter, and constructs are stably integrated into the cell genome. The sequences of the ERBB2 and EGFR genes used were NCBI Reference Sequences NM_004448.3 and NM_005228.3, respectively.
Similarly, Ba/F3 cell lines engineered to express EGFR, ERBB2, or ERBB2 mutants were grown, harvested, counted and seeded at 3000 cells per well in 96-well plates for the data sets shown in Tables B3-B4. A subset of wells contained media only (low control, “LC”).
Table B1 provides the growth media and number of cells seeded per well for the each cell line.
Compounds were dissolved in DMSO and serially diluted. Serially-diluted compound or a DMSO only control (high control, “HC”) was added to the plated cells in each well. […] The final proportion of DMSO never exceeded 0.1%.
Plates were placed in a 37° C., 5% CO2 incubator for 72 hours. Plates were then removed from the incubator and equilibrated for 15 minutes at room temperature. 40 μl of CellTiter Glo reagent (Promega) was added to measure the relative level of metabolically active cells by quantifying intracellular ATP concentrations. Plates were incubated for 30 minutes at room temperature, and luminescence was measured. Percent viability was normalized to a vehicle control only using the following formula: % viability=100×(Lumsample−LumLC)/(LumHC−LumLC). Graphical curves were fitted using a nonlinear regression model with a sigmoidal dose response.

[2] = target: T1, phosphorylated ERBB2 (pERBB2) (Homo sapiens, UniProt P04626); test: Detection of phosphorylated ERBB2 (pERBB2) by ELISA in BT-474 cells; type: cell-based; conditions: four hour incubation with compound
T1 construct: endogenous in cells; host or cells: BT-474
T1 sequence (P04626 23-1255): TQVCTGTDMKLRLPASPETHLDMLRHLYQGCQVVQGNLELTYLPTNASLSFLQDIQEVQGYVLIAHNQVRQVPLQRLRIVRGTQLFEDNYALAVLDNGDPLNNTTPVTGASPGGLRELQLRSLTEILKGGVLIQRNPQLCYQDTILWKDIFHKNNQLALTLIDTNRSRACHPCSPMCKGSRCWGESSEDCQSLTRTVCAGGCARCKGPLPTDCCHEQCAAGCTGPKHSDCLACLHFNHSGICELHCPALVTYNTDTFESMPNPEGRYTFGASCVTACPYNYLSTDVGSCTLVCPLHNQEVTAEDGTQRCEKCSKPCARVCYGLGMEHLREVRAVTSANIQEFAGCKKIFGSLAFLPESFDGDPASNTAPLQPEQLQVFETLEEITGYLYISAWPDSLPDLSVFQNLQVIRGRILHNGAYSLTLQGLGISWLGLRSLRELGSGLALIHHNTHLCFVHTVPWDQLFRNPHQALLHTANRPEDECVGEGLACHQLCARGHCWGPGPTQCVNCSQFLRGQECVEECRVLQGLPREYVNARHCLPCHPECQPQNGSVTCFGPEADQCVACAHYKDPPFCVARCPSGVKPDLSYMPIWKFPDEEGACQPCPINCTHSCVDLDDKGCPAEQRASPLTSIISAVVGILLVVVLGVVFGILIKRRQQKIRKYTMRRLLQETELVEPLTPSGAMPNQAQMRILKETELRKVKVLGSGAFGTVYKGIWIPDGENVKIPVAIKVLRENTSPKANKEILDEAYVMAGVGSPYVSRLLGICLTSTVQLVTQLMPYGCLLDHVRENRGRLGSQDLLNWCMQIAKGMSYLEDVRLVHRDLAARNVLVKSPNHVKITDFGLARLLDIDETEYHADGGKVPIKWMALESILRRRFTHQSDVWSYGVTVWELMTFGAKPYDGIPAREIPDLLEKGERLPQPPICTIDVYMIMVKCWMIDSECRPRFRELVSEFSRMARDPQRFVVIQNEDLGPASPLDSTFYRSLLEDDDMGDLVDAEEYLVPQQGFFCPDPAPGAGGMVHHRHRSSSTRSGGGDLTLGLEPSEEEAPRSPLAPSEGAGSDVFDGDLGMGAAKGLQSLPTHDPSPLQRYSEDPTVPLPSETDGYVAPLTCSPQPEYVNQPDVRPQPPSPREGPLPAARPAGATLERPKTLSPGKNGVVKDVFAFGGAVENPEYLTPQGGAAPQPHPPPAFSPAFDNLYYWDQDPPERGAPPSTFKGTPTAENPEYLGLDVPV
Description: BT-474 cells were seeded into a 96-well at 2.0*10^4 cells/100 μl/well. Compounds were dissolved and serially diluted in DMSO. The compounds were then were added, mixed, and incubated for four hours at 37° C., 5% CO2. Compounds were added using four-fold dilutions at final concentrations ranging from 10 μM to 0.01 nM. Following the four hour incubation with compounds, cell lysates were prepared. Plates were centrifuged for 5 min at 3000 RPM, and supernatant was removed from each well. Cells were washed 3 times by resuspension in 150 μl PBS, followed by centrifugation and removal of the supernatant, as above. […] Cells were incubated with lysis buffer for 1 hour at 4° C., and then stored at -80° C. Enzyme-linked immunosorbent assays (ELISA) were performed to measure phosphorylated ERBB2 levels. […] The next day, plates were washed with PBS+0.05% Tween20 (PBST). 150 μl of 5% BSA blocking solution was added for 1 hour at room temperature, with shaking. Plates were washed with PBST. Cell lysates were thawed and 100 μl of lysate was added to the ELISA plate. The plates were incubated for 2 hours at room temperature, with shaking. […] Plates were incubated for 1 hour at room temperature, with shaking. Plates were then washed with PBST, and 100 μl TMB substrate solution (R&D Systems, cat #DY999) was added. Plate were incubated in the dark for 20 minutes at room temperature. 50 μl of Stop solution (R&D Systems, cat #DY994) (50 μl) was added to each well and mixed. Optical density at 450 nm was read on an EnSpire plate reader (Perkin Elmer). The remaining kinase activity by calculated using the following formula: % Relative activity=100×([…]). The low and high control values (“LC” and “HC”) were generated from lysate from wells without cells or with cells treated with 0.1% DMSO, respectively.

[3] = target: T2, phosphorylated EGFR (pEGFR) (Homo sapiens, UniProt P00533); test: Detection of phosphorylated EGFR (pEGFR) in EGF-stimulated A431 cells (AlphaLISA); type: cell-based; conditions: A431 cells (10% FBS), 4 hours incubation, EGF 30 ng/mL for 10 minutes
T2 construct: performed to measure phosphorylated EGFR levels using A431 cells; endogenous in cells; host or cells: A431
T2 sequence (P00533 25-1210): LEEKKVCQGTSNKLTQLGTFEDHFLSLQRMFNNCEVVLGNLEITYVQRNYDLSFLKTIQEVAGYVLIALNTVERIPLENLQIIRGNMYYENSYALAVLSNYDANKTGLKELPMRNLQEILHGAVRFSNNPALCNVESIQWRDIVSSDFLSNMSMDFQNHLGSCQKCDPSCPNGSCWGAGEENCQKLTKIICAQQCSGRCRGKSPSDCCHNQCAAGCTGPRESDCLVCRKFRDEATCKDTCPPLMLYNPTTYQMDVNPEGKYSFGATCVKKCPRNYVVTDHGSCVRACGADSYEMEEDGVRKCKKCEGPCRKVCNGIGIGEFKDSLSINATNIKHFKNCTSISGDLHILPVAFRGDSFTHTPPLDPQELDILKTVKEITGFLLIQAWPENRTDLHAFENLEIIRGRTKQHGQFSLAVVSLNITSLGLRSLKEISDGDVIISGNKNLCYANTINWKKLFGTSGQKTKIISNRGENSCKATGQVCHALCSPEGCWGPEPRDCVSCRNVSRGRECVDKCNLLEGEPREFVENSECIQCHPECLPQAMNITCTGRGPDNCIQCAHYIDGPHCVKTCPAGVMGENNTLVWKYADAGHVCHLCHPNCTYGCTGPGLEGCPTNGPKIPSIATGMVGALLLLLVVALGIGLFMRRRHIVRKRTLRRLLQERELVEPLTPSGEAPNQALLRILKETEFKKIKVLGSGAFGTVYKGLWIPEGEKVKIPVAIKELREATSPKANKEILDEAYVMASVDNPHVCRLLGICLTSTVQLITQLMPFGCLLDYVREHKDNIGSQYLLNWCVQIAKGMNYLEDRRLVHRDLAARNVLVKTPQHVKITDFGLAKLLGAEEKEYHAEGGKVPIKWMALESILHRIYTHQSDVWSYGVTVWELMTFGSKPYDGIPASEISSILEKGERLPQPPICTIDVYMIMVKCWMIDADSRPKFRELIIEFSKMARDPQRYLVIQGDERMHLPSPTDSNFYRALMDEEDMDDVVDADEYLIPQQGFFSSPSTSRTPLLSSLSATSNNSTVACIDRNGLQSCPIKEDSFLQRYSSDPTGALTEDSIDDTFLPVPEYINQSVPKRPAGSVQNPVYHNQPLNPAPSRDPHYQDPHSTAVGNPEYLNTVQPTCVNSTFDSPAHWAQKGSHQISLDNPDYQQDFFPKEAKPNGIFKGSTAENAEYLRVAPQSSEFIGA
Description: Enzyme-linked immunosorbent assays (ELISA) were performed to measure phosphorylated EGFR levels using A431 cells (10% FBS). A431 (1.0*10^4 cells/40 μl/well) cells were seeded in 384 well. Compounds were dissolved in DMSO, serially diluted in DMSO and then were added, mixed, and incubated for 4 hours at 37° C., 5% CO2. Following the 4-hours incubation, cells were stimulated for 10 minutes with EGF (Invitrogen, cat #PHG0311) at a final concentration of 30 ng/mL in the incubator. The media was aspirated and cells were lysed in 10 μL lysis buffer with protease and phosphatase inhibitors (PerkinElmer, cat #ALSU-PEGFR-A50K). The plates were placed on a shaker for 5 minutes and then incubated for 30 min at 4° C. for complete lysis. The lysate was transferred to an Optiplate (Perkin Elmer, cat #6007290).
Acceptor mix (PerkinElmer, cat #ALSU-PEGFR-A50K) was prepared just before use and 5 μL was dispensed to all the wells, followed by a 1.5-2 h incubation at room temperature in dark. The donor mix (PerkinElmer, cat #ALSU-PEGFR-A50K) was prepared under low light conditions prior to use and 5 μl of donor mix was added to all the wells under subdued lighting or green filters. The plates were placed on a shaker for 5 min, sealed, and incubated overnight at room temperature in dark. Plates were read on the Envision (PerkinElmer) using standard AlphaLISA settings.
The percentage of inhibition on EGFR phosphorylation was calculated following equation: % Inhibition=100×(LumHC−LumSample)/(LumHC−LumLC). The low and high controls (LC/HC) are generated from lysate from wells with cells treated with DMSO or […] Staurosporine (BioAustralis, cat #BIA-S1086), […]. IC50 values were calculated by fitting the Curve using XLfit (v5.3.1.3), equation 201: Y=Bottom+ (Top−Bottom)/(1+10^((LogIC50−X)*HillSlope)).

Ba/F3 ERBB2 YVMA, sequence (P04626 with tags, fused parts or gaps DUP772-775): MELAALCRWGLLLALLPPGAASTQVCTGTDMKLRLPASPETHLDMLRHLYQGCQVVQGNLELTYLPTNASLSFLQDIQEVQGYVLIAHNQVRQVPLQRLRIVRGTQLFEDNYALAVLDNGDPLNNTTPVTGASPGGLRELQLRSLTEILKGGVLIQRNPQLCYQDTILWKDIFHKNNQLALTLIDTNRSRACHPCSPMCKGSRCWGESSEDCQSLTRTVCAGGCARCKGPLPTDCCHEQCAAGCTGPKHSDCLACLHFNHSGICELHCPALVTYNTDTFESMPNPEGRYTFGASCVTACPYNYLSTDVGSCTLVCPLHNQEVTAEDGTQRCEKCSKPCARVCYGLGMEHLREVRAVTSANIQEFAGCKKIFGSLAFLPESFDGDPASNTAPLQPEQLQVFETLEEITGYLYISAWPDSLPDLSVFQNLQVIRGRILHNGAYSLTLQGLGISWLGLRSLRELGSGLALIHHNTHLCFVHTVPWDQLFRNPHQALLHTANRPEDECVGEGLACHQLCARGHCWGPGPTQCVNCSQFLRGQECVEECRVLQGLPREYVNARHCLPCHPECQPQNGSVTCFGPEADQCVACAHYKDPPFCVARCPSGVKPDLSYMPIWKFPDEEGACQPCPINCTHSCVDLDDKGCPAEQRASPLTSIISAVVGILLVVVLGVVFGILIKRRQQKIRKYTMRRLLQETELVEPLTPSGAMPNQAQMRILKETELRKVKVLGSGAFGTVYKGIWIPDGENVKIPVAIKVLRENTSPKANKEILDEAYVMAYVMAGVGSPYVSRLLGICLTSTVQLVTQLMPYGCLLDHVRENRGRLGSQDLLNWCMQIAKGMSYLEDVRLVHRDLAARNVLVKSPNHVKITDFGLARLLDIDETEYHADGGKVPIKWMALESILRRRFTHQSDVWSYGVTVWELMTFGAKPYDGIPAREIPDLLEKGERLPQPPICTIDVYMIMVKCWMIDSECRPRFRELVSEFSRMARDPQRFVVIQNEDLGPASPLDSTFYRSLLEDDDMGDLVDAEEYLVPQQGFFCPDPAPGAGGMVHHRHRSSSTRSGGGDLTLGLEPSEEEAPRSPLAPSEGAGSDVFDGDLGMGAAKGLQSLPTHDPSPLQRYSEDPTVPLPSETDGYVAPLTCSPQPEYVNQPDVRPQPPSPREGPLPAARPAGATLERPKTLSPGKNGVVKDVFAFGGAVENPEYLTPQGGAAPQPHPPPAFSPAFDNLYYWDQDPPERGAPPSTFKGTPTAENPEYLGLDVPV

Compound | GI50 [1] [nM] | IC50 [2] [nM] | IC50 [3] [nM]
Cc1cc(Nc2ncnc3cnc(N4CCN(C(=O)/C=C/CN(C)C)[C@H](C)C4)nc23)ccc1Cc1ccn2ncnc2c1 [Compound 122, (R,E)-1-(4-(8-((4-([1,2,4]triazolo[1,5-a]pyridin-7-ylmethyl)-3-methylphenyl)amino)pyrimido[5,4-d]pyrimidin-2-yl)-2-methylpiperazin-1-yl)-4-(dimethylamino)but-2-en-1-one] | 32.4 | 53.2 | > 10000
C=CC(=O)N1CCN(c2cc3c(Nc4ccc(Oc5ccc6c(c5)ncn6C)c(C)c4)ncnc3cn2)[C@@H](C)C1 [Compound 107, 1-[(3S)-3-methyl-4-[4-({3-methyl-4-[(1-methyl-1,3-benzodiazol-5-yl)oxy]phenyl}amino)pyrido[3,4-d]pyrimidin-6-yl]piperazin-1-yl]prop-2-en-1-one] | 73.4 | 21.8 | 2880
C=CC(=O)N1CC2CCC(C1)N2c1ccc2ncnc(Nc3ccc(Oc4ccc5c(c4)ncn5C)c(C)c3)c2n1 [Compound 73, 1-{8-[4-({3-methyl-4-[(1-methyl-1,3-benzodiazol-5-yl)oxy]phenyl}amino)pyrido[3,2-d]pyrimidin-6-yl]-3,8-diazabicyclo[3.2.1]octan-3-yl}prop-2-en-1-one] | 29 | 32.5 | 281
Cc1cc(Nc2ncnc3ccc(N4CCN(C(=O)/C=C/CN(C)C)CC4)nc23)ccc1Cc1ccn2ncnc2c1 [Compound 87, (E)-1-(4-(4-((4-([1,2,4]triazolo[1,5-a]pyridin-7-ylmethyl)-3-methylphenyl)amino)pyrido[3,2-d]pyrimidin-6-yl)piperazin-1-yl)-4-(dimethylamino)but-2-en-1-one] | 17.3 | 12.9 | 2420
C=CC(=O)N1CCN(c2cc3c(Nc4ccc(OC5CCN(C(=O)CC(C)(C)C)CC5)c(C)c4)ncnc3cn2)CC1 [Compound 3, 3,3-dimethyl-1-{4-[2-methyl-4-({6-[4-(prop-2-enoyl)piperazin-1-yl]pyrido[3,4-d]pyrimidin-4-yl}amino)phenoxy]piperidin-1-yl}butan-1-one] | 40.2 | 43 | 1680
C=CC(=O)N1CC[C@H](Oc2ccc3ncnc(Nc4ccc(Oc5ccc6c(c5)ncn6C)c(C)c4)c3n2)C1 [Compound 49, 1-[(3S)-3-{[4-({3-methyl-4-[(1-methyl-1,3-benzodiazol-5-yl)oxy]phenyl}amino)pyrido[3,2-d]pyrimidin-6-yl]oxy}pyrrolidin-1-yl]prop-2-en-1-one] | 15.7 | 56.9 | 346
C=CC(=O)N1CCC(Nc2ccc3ncnc(Nc4ccc(Oc5ccn6ncnc6c5)c(C)c4)c3n2)CC1 [Compound 40, 1-[4-({4-[(3-methyl-4-{[1,2,4]triazolo[1,5-a]pyridin-7-yloxy}phenyl)amino]pyrido[3,2-d]pyrimidin-6-yl}amino)piperidin-1-yl]prop-2-en-1-one] | 5.81 | 6.1 | 22
C=CC(=O)N1CCN(c2ccc3ncnc(Nc4ccc(Oc5ccc(C)nc5)c(C)c4)c3n2)CC1 [Compound 91, 1-(4-(4-(3-methyl-4-(6-methylpyridin-3-yloxy)phenylamino)pyrido[3,2-d]pyrimidin-6-yl)piperazin-1-yl)prop-2-en-1-one] | 17.5 | 21.9 | 329
C=CC(=O)N1CCN(c2ncc3ncnc(Nc4ccc(Cc5ccn6ncnc6c5)c(C)c4)c3n2)CC1 [Compound 115, 1-(4-(8-((4-([1,2,4]triazolo[1,5-a]pyridin-7-ylmethyl)-3-methylphenyl)amino)pyrimido[5,4-d]pyrimidin-2-yl)piperazin-1-yl)prop-2-en-1-one] | 9.29 | 16.9 | 4290
C=CC(=O)N1CCN(c2ccc3ncnc(Nc4ccc(Oc5ccc6c(c5)ncn6C)c(C)c4)c3c2F)C[C@H]1C [Compound 64, 1-[(2R)-4-[5-fluoro-4-({3-methyl-4-[(1-methyl-1,3-benzodiazol-5-yl)oxy]phenyl}amino)quinazolin-6-yl]-2-methylpiperazin-1-yl]prop-2-en-1-one] | 12.4 | 38.6 | 2520
C=CC(=O)N1CC[C@@H](Nc2ccc3ncnc(Nc4ccc(Oc5ccn6ncnc6c5)c(C)c4)c3n2)C1 [Compound 44, 1-[(3R)-3-({4-[(3-methyl-4-{[1,2,4]triazolo[1,5-a]pyridin-7-yloxy}phenyl)amino]pyrido[3,2-d]pyrimidin-6-yl}amino)pyrrolidin-1-yl]prop-2-en-1-one] | 2.58 | 6.33 | 268
C=CC(=O)N1CCN(c2ccc3ncnc(Nc4ccc(Oc5ccn6ncnc6c5)c(C)c4)c3n2)CC12CC2 [Compound 118, 1-(7-{4-[(3-methyl-4-{[1,2,4]triazolo[1,5-a]pyridin-7-yloxy}phenyl)amino]pyrido[3,2-d]pyrimidin-6-yl}-4,7-diazaspiro[2.5]octan-4-yl)prop-2-en-1-one] | 7.76 | 11.5 | 107
C=CC(=O)N1CCN(c2ccc3ncnc(Nc4ccc(Oc5ccn6ncnc6c5)c(C)c4)c3c2)CC1 [Compound 7, 1-(4-{4-[(3-methyl-4-{[1,2,4]triazolo[1,5-a]pyridin-7-yloxy}phenyl)amino]quinazolin-6-yl}piperazin-1-yl)prop-2-en-1-one] | 8.65 | 13 | 694
C=C(F)C(=O)N1CCN(c2ccc3ncnc(Nc4ccc(Oc5ccn6ncnc6c5)c(C)c4)c3n2)CC1 [Compound 13, 2-fluoro-1-(4-{4-[(3-methyl-4-{[1,2,4]triazolo[1,5-a]pyridin-7-yloxy}phenyl)amino]pyrido[3,2-d]pyrimidin-6-yl}piperazin-1-yl)prop-2-en-1-one] | 232 | 97.5 | > 10000
